Square brackets hold non-standard residues; d marks the D form. Peptide text beside a SMILES is read from it. * marks the point of attachment. Sta = CC(C)C[C@H](N)[C@@H](O)CC(=O)O; Isovaleryl = CC(C)CC(=O)*
Legend:
HepG2 cells [1] = experiment: Effect of protease inhibitors on degradation of endocytosed α-DNP antibody in HepG2 cells (50 kDa/25 kDa band ratio); conditions: for inhibition of α-DNP antibody degradation (triplicate): 12 hours, each concentration in triplicate, ALLN 100 and 10 μM, FIG. 117; for inhibition of α-DNP antibody degradation (initial screening): leupeptin 20 and 80 μM, E64 50 and 10 μM, antipain 50 and 100 μM, aprotinin 400 or 800 nM, PMSF 100 or 500 μM, AEBSF 10 μM, ALLN 10 μM, FIG. 116
Source text: The ratiometric comparison of band intensity at 50 kDa divided by the intensity of the 25 kDa was used as a measure of α-DNP antibody degradation. As endocytosed α-DNP antibody is degraded in cells, this ratio decreases. […] Each ratiometric measurement is produced using only the protein fragments present in the cell lysate.
Protease inhibitors which inhibit α-DNP antibody degradation are expected to cause an accumulation of fluorescent intensity at 50 kDa and a decrease in fluorescent intensity at 25 kDa.
Next it was studied whether the inhibition of α-DNP antibody degradation by protease inhibitors was reproducible. Each protease inhibitor concentration was tested in triplicate in HepG2 cells (FIG. 117).
Pepstatin at a concentration 15 μM was included as a negative control.

α-DNP antibody = experiment: In vivo depletion of α-DNP antibody from serum in mice (ELISA); conditions: i.p. injection; FIG. 79A
Experimental: FIG. 94 illustrates that serum levels of α-DNP antibody decrease more rapidly following repeated treatment with DNP-GN3. Serum antibody levels were measured using an ELISA assay. Each experimental group contained three mice. Statistical differences in experiments involving in vivo depletion of α-DNP antibody were assessed by repeated measures two-way ANOVA with Tukey's tests for post-hoc comparison of simple effects between each of the treatment groups and PBS.
Single doses of DNP-GN3 were also found to be efficacious at mediating α-DNP antibody depletion, albeit less effectively than daily dosing (FIG. 96). […] Therefore, it was concluded that DNP-GN3 is able to mediate the depletion of a monoclonal antibody from serum, and functions across a wide range of target protein concentrations and dosing regimens.
DNP-GN3 was also found to be efficacious in depleting polyclonal α-DNP antibody from serum collected from mice immunized with DNP-keyhole limpet haemocyanin (KLH) (FIG. 97). […] Thus, the small molecule DNP-GN3 is not restricted in function to only monoclonal mouse antibodies, but is also effective at removing polyclonal α-DNP antibodies from circulation in mice.

HepG2 cells [2] = experiment: DNP-GN3-mediated endocytosis of fluorescently labeled α-DNP antibody by adherent HepG2 cells; type: cell-based, human; conditions: sodium azide and 2-deoxyglucose as combined treatment; FIG. 89
Experimental: It was next explored whether DNP-GN3 mediates the endocytosis of fluorescently labeled α-DNP antibody.
To explore the cellular mechanism of antibody uptake, cells were treated with chemical inhibitors of several endocytic pathways (FIG. 89).

HepG2 cells [3] = experiment: MIF-GN3-mediated endocytosis of Alexa 488-labeled human MIF by HepG2 cells; conditions: for effect of endocytic pathway inhibitors on MIF-GN3-mediated MIF endocytosis: MIF 100 nM, MIF-GN3 200 nM, FIG. 132
Experimental: Human MIF protein was fluorescently labeled with Alexa 488 NHS ester, then incubated with HepG2 cells in the presence of varying levels of MIF-GN3.
The ability of MIF-GN3 to mediate MIF endocytosis over a wide range of target protein concentrations was assessed.
Next, inhibitors of various endocytic pathways were utilized to determine if MIF-GN3 mediates MIF endocytosis in a manner consistent with ASGPR (FIG. 132).

human MIF = target: T1, human MIF (Homo sapiens, UniProt P14174); experiment: Depletion of human MIF from cell culture supernatant (sandwich ELISA); type: cell-based; conditions: for depletion of MIF from cell culture supernatant, optimized ASGPR-binding motifs / depletion of human MIF from cell culture supernatant: human MIF 100 nM; for depletion of MIF from cell culture supernatant, optimized ASGPR-binding motifs: MIF-AF2 at 40 nM, 200 nM and 1 μM; for depletion of human MIF from cell culture supernatant: FIG. 128A
T1 sequence (P14174 2-115 limits assumed): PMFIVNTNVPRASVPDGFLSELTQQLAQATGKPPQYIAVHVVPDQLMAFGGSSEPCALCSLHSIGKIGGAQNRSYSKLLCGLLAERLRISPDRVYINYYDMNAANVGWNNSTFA
Experimental: The ability of bifunctional MIF-binding molecules to mediate the depletion of human MIF from cell culture was investigated. In these assays, human MIF was present at a concentration of 100 nM, and a sandwich ELISA assay was utilized to measure the concentration of human MIF remaining in the cell culture supernatant. The closely related bifunctional molecules MIF-GN3, MIF-PEG2-GN3, and MIF-PEG4-GN3 were used, as well as the structurally dissimilar molecule MIF-NVS-PEG3-GN3. […] Based on the ease of its synthesis and its efficacy in this experiment, MIF-GN3 was utilized for further studies. It was next investigated whether the MIF inhibitor 3w mediates MIF depletion from cell culture supernatant. […] When cells were treated with 3w, no depletion of exogenous MIF protein was observed after 24 hours (FIG. 128B).
Bifunctional molecules containing optimized ASGPR-binding motifs are also capable of mediating MIF depletion from cell culture supernatant (FIG. 129). The MIF-binding molecule MIF-AF1, which contains only a single ASGPR-binding sugar, was not effective at mediating depletion of MIF from supernatant at any concentration tested. It is hypothesized that this is due to the compound's low predicted affinity for ASGPR (μM range). […] At a concentration of either 200 nM or 1 μM, MIF-AF2 mediated nearly 100%/o depletion of MLF from the cell culture supernatant after 48 hours. […] In contrast to these molecules, which utilize optimized synthetic ASGPR ligands, the GalNAc-based molecule MIF-GN3 mediated only 67.0% and 56.0% removal of MIF from supernatant after 48 hours at concentrations of 1 μM and 200 nM, respectively. […] At a concentration of 40 nM (4.0 pmol of molecule), MIF-AF3 mediates the removal of 83.2% of MIF present in the cell culture supernatant, or 8.32 pmol of human MIF protein. Therefore, it was concluded that under the conditions of this experiment, MIF-AF3 mediates the depletion of 2.08 molar equivalents of MIF protein.

In the case of Cl.NCCc1ccc(S(=O)(=O)F)cc1 [AEBSF, 4-(2-aminoethyl)benzeneulfonyl fluoride hydrochloride], the “inhibition of α-DNP antibody degradation (triplicate)” value (from here on “inhibition … (triplicate)”) (HepG2 cells [1]) is reported as “did not significantly inhibit”, the toxicity to cells (HepG2 cells [1]; HepG2 cells, pepstatin 5 μM after 24 hours, AEBSF 100 μM, ALLN 100 μM by 24 hours) is reported as “toxic” and the “inhibition of α-DNP antibody degradation (initial screening)” value (from here on “inhibition … (initial screening)”) (HepG2 cells [1]) is reported as “not effective”.
In the case of CC(C)C[C@H](NC(=O)[C@@H](O)[C@H](N)Cc1ccccc1)C(=O)O [Bestatin], the “inhibition … (triplicate)” value (HepG2 cells [1]) is reported as “did not significantly inhibit” and the “inhibition … (initial screening)” value (HepG2 cells [1]) is reported as “not effective”.
CC(C)C[C@H](NC(=O)[C@H]1O[C@@H]1C(=O)O)C(=O)NCCCCN=C(N)N [Compound E64, E64] was tested, and the “inhibition … (triplicate)” value (HepG2 cells [1]) was “shown to inhibit” and the “inhibition … (initial screening)” value (HepG2 cells [1]) was “effective”.
With O=C(CCOCC(COCCC(=O)NCCOCCOCCO)(COCCC(=O)NCCOCCOCCO)NC(=O)CNC(=O)COCCOCCOCCNc1ccc([N+](=O)[O-])cc1[N+](=O)[O-])NCCOCCOCCO [DNP-(OH)3] the “degradation of injected anti-DNP IgG antibodies in mouse serum” value (α-DNP antibody) was “did not show such effect”.
CCN(c1nc(N)c(C(=O)N=C(N)N)nc1Cl)C(C)C [EIPA, 5-(N-Ethyl-N-isopropyl)amiloride] was tested, and the “effect of endocytic pathway inhibitors on intracellular fluorescence (DNP-GN3-mediated uptake)” value (HepG2 cells [2]) was “did not significantly decrease” and the “effect of endocytic pathway inhibitors on MIF-GN3-mediated MIF endocytosis” value (HepG2 cells [3]) was “significantly inhibited uptake”.
For O=C(CCCOc1ccc2nc(-c3cn(-c4ccc(O)c(F)c4)nn3)ccc2c1)NCCOCCC(=O)NCCOCCOCCOCCOC[C@]12CO[C@H](O1)[C@H](NC(=O)C(F)(F)F)[C@@H](O)[C@H]2O [MIF-AF1], the “depletion of MIF from cell culture supernatant, optimized ASGPR-binding motifs” value (human MIF; FIG. 129) was “not effective”.
With O=C(CCOCC(COCCC(=O)NCCOCCOCCOCCOC[C@]12CO[C@H](O1)[C@H](NC(=O)C(F)(F)F)[C@@H](O)[C@H]2O)NC(=O)CCCOc1ccc2nc(-c3cn(-c4ccc(O)c(F)c4)nn3)ccc2c1)NCCOCCOCCOCCOC[C@]12CO[C@H](O1)[C@H](NC(=O)C(F)(F)F)[C@@H](O)[C@H]2O [MIF-AF2] the “depletion of MIF from the cell culture supernatant” value (human MIF; 200 nM or 1 μM, after 48 hours, FIG. 129) was ~100% and the “depletion of MIF from cell culture supernatant, optimized ASGPR-binding motifs” value (human MIF; FIG. 129) was “effective”.
O=C(CCOCC(COCCC(=O)NCCOCCOCCOCCOC[C@]12CO[C@H](O1)[C@H](NC(=O)C(F)(F)F)[C@@H](O)[C@H]2O)(COCCC(=O)NCCOCCOCCOCCOC[C@]12CO[C@H](O1)[C@H](NC(=O)C(F)(F)F)[C@@H](O)[C@H]2O)NC(=O)CCCOc1ccc2nc(-c3cn(-c4ccc(O)c(F)c4)nn3)ccc2c1)NCCOCCOCCOCCOC[C@]12CO[C@H](O1)[C@H](NC(=O)C(F)(F)F)[C@@H](O)[C@H]2O [MIF-AF3] was tested, and the “amount of human MIF protein removed” value (human MIF; 40 nM (4.0 pmol of molecule)) was 8.32 pmol.
In the case of CC(=O)NC1C(OCCOCCOCCNC(=O)CCOCC(COCCC(=O)NCCOCCOCCOC2OC(CO)C(O)C(O)C2NC(C)=O)(COCCC(=O)NCCOCCOCCOC2OC(CO)C(O)C(O)C2NC(C)=O)NC(=O)CNC(=O)COCCOCCOCCn2cc(COCCOCCOc3ccc(N4Cc5ccc(O)cc5OC4=O)cc3)nn2)OC(CO)C(O)C1O (stereo not drawn) [MIF-NVS-PEG3-GN3], the “depletion of human MIF from cell culture supernatant” value (“depletion of human MIF” for short) (human MIF; 24 hours) is reported as “effective”.
CC(=O)NC1C(OCCOCCOCCNC(=O)CCOCC(COCCC(=O)NCCOCCOCCOC2OC(CO)C(O)C(O)C2NC(C)=O)(COCCC(=O)NCCOCCOCCOC2OC(CO)C(O)C(O)C2NC(C)=O)NC(=O)CNC(=O)COCCOCCNC(=O)CCCOc2ccc3nc(-c4cn(-c5ccc(O)c(F)c5)nn4)ccc3c2)OC(CO)C(O)C1O (stereo not drawn) [MIF-PEG2-GN3] was tested, and the “depletion of exogenous MIF protein from cell culture supernatant” value (human MIF; 24 hours, FIG. 128B) was “mediated MIF depletion across a range of concentrations” and the “depletion of human MIF” value (human MIF; 24 hours) was “effective”.
In the case of CC(=O)NC1C(OCCOCCOCCNC(=O)CCOCC(COCCC(=O)NCCOCCOCCOC2OC(CO)C(O)C(O)C2NC(C)=O)(COCCC(=O)NCCOCCOCCOC2OC(CO)C(O)C(O)C2NC(C)=O)NC(=O)CNC(=O)COCCOCCOCCOCCNC(=O)CCCOc2ccc3nc(-c4cn(-c5ccc(O)c(F)c5)nn4)ccc3c2)OC(CO)C(O)C1O (stereo not drawn) [MIF-PEG4-GN3], the “depletion of human MIF” value (human MIF; 24 hours) is reported as “effective”.
In the case of O=S(=O)(F)Cc1ccccc1 [PMSF, Phenylmethylsulfonyl fluoride], the “inhibition … (triplicate)” value (HepG2 cells [1]) is reported as “did not significantly inhibit” and the “inhibition … (initial screening)” value (HepG2 cells [1]) is reported as “not effective”.
CC(C)CC(=O)N[C@H](C(=O)N[C@H](C(=O)N[C@@H](CC(C)C)[C@@H](O)CC(=O)N[C@@H](C)C(=O)N[C@@H](CC(C)C)[C@@H](O)CC(=O)O)C(C)C)C(C)C [Pepstatin] (Isovaleryl-VV[Sta]A[Sta]-OH) was tested, and the “inhibition … (triplicate)” value (HepG2 cells [1]) was “did not significantly inhibit” and the “inhibition … (initial screening)” value (HepG2 cells [1]) was “not effective”.
For Cl.N [ammonium chloride, NH4Cl], the “effect of endocytic pathway inhibitors on MIF-GN3-mediated MIF endocytosis” value (HepG2 cells [3]) was “near background levels”.
With CO/C1=C\C(C)=C\[C@@H](C)[C@@H](O)[C@@H](C)C/C(C)=C/C=C/[C@H](OC)[C@@H]([C@@H](C)[C@@H](O)[C@H](C)[C@@]2(O)C[C@@H](O)[C@H](C)[C@@H](C(C)C)O2)OC1=O [bafilomycin, Bafilomycin] the “effect of endocytic pathway inhibitors on intracellular fluorescence (DNP-GN3-mediated uptake)” value (HepG2 cells [2]) was “significantly decreased” and the “effect of endocytic pathway inhibitors on MIF-GN3-mediated MIF endocytosis” value (HepG2 cells [3]) was “near background levels”.
CCN(CC)CCCC(C)Nc1ccnc2cc(Cl)ccc12 (stereo not drawn) [chloroquine, Chloroquine] was tested, and the “effect of endocytic pathway inhibitors on intracellular fluorescence (DNP-GN3-mediated uptake)” value (HepG2 cells [2]) was “significantly decreased” and the “effect of endocytic pathway inhibitors on MIF-GN3-mediated MIF endocytosis” value (HepG2 cells [3]) was “near background levels”.
For C=C1[C@@H](C)[C@H]2[C@H](Cc3ccccc3)NC(=O)[C@]23[C@H](OC(C)=O)/C=C/[C@@](C)(O)C(=O)[C@@H](C)C/C=C/[C@H]3[C@@H]1O [cytochalasin D], the “effect of endocytic pathway inhibitors on intracellular fluorescence (DNP-GN3-mediated uptake)” value (HepG2 cells [2]) was “did not significantly decrease” and the “toxicity of endocytosis inhibitors to cells” value (HepG2 cells [3]; HepG2 cells in the presence of MIF and MIF-GN3) was “toxic”.
In the case of CC(=O)N[C@@H](CC(C)C)C(=O)N[C@@H](CC(C)C)C(=O)N[C@H](C=O)CCCNC(=N)N [leupeptin, Leupeptin], the “inhibition … (triplicate)” value (HepG2 cells [1]) is reported as “shown to inhibit” and the “inhibition … (initial screening)” value (HepG2 cells [1]) is reported as “effective”.
For Aprotinin, the “inhibition … (triplicate)” value (HepG2 cells [1]) was “did not significantly inhibit” and the “inhibition … (initial screening)” value (HepG2 cells [1]) was “not effective”.

Source: patent publication US20250269043A1, “TARGETED BIFUNCTIONAL DEGRADERS” (YALE UNIVERSITY, priority 2019, published 2025)
